Experimental data reported in patent publication US7291732B2, “Isomeric fused pyrrolocarbazoles and isoindolones” (Cephalon, Inc., priority 1999, dated 2007).
Read-outs that look alike come from different tables or passages of the source. Values belong to the compound of their own block, whether it stands above or below them.

Legend:
[1] = molecular target: T1, baculovirus-expressed human trkA cytoplasmic domain (Homo sapiens, UniProt P04629); test: trkA tyrosine kinase activity inhibition, ELISA-based assay; assay type: biochemical; conditions: for inhibition at 0.3 µM: read-out: trkA (% inhibition @ 300 nM)
T1 construct: baculovirus-expressed human trkA cytoplasmic domain; made in house
T1 sequence (P04629 440-796 limits assumed): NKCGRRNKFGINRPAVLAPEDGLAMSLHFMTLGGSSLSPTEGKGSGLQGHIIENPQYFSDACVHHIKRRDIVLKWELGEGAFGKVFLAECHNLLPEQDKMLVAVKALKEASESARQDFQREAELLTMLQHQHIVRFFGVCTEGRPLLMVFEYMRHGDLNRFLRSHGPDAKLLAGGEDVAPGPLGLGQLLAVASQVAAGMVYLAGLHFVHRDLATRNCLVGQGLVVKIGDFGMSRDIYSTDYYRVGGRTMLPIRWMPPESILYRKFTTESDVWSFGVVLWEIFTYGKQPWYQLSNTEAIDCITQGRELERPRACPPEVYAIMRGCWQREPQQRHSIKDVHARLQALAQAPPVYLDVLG
Procedure: Selected isomeric fused pyrrolocarbazole and isoindolone compounds were tested for their ability to inhibit the kinase activity of baculovirus-expressed human trkA cytoplasmic domain using an ELISA-based assay as previously described (Angeles et al, Anal. Biochem. 236: 49-55, 1996). Briefly, the 96-well microtiter plate was coated with substrate solution (recombinant human phospholipase C-γl/glutathione S-transferase fusion protein (Rotin et al., EMBO J., II: 559-567, 1992). Inhibition studies were performed in 100 μl assay mixtures containing 50 mM Hepes, pH 7.4, 40 μM ATP, 10 mM MnCl2, 0.1% BSA; 2% DMSO, and various concentrations of inhibitor. The reaction was initiated by addition of trkA kinase and allowed to proceed for 15 minutes at 37° C. An antibody to phosphotyrosine (UBI) was then added, followed by a secondary enzyme-conjugated antibody, alkaline phosphatase-labelled goat anti-mouse IgG (Bio-Rad). The activity of the bound enzyme was measured via an amplified detection system (Gibco-BRL). Inhibition data were analyzed using the sigmoidal dose-response (variable slope) equation in GraphPad Prism.

[2] = molecular target: T2, baculovirus-expressed VEGF receptor (human flk-1, KDR, VEGFR2) kinase domain (Homo sapiens, UniProt P35968); test: VEGF receptor kinase activity inhibition, ELISA assay; assay type: biochemical; conditions: for IC50 / VEGFR kinase (% inhibition @ 300 nM): 40 μM ATP; for IC50: value printed without parentheses, read-out: VEGFR kinase IC50; for VEGFR kinase (% inhibition @ 300 nM): 300 nM compound, value printed in parentheses
T2 construct: VEGF receptor (human flk-1, KDR, VEGFR2) kinase domain; made in house
T2 sequence (P35968 834-1162 limits assumed): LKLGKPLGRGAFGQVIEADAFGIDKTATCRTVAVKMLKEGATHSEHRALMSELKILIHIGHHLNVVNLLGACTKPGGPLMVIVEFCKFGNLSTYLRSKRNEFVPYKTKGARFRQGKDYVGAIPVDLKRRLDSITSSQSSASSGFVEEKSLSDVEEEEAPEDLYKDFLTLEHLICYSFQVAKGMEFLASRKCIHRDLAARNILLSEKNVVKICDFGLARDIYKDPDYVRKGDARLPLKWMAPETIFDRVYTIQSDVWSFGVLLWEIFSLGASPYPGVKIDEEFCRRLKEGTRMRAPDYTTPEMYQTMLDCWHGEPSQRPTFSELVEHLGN
Procedure: Isomeric fused pyrrolocarbazole and isoindolone compounds were examined for their inhibitory effects on the kinase activity of baculovirus-expressed VEGF receptor (human flk-1, KDR, VEGFR2) kinase domain using the procedure described for the trkA kinase ELISA assay described above. The kinase reaction mixture, consisting of 50 mM Hepes, pH 7.4, 40 μM ATP, 10 mM MnCl2, 0.1% BSA, 2% DMSO, and various concentrations of inhibitor, was transferred to PLC-γ/GST-coated plates. VEGFR kinase was added and the reaction was allowed to proceed for 15 min at 37° C. Detection of phosphorylated product was accomplished by addition of anti-phosphotyrosine antibody (UBI). A secondary enzyme-conjugated antibody was delivered to capture the antibody-phosphorylated PLC-γ/GST complex. The activity of the bound enzyme was measured via an amplified detection system (Gibco-BRL). Inhibition data were analyzed using the sigmoidal dose-response (variable slope) equation in GraphPad Prism Results are summarized in Table 6.

[3] = molecular target: T3, baculovirus-expressed PDGFβ receptor kinase domain (Homo sapiens, UniProt P09619); test: PDGF receptor kinase activity inhibition, ELISA assay; assay type: biochemical; conditions: for inhibition at 1 µM: read-out: PDGFRβ (% inhibition @ 1 μM)
T3 construct: baculovirus-expressed PDGFβ receptor kinase domain; made in house
T3 sequence (P09619 600-962 limits assumed): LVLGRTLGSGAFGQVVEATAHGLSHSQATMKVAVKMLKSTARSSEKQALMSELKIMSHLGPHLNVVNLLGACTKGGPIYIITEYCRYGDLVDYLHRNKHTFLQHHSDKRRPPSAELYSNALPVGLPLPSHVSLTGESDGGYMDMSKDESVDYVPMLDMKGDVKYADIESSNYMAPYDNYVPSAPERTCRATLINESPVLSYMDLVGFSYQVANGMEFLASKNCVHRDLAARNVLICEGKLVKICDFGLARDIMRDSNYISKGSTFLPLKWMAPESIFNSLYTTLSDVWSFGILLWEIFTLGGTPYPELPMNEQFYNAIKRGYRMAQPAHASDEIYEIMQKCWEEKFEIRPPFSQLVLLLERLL
Procedure: Isomeric fused pyrrolocarbazole and isoindolone compounds were examined for their inhibitory effects on the kinase activity of baculovirus-expressed PDGFβ receptor kinase domain using the trkA kinase ELISA described above. Assays were performed in substrate (PLC-γ/GST)-coated 96-well microtiter plates. Each 100-μl reaction mixture contained 50 mM HEPES, pH 7.4, 20 μM ATP, 10 mM MnCl2, 0.1% BSA, 2% DMSO, and various concentrations of inhibitor. The reaction was initiated by addition of prephosphorylated recombinant human enzyme (10 ng/ml PDGFβ) and allowed to proceed for 15 minutes at 37° C. The prephosphorylated enzyme was prepared prior to use by incubation of the kinase in buffer containing 20 μM ATP and 10 mM MnCl2 for 1 hour at 4 C. Detection of phosphorylated product was done by adding horseradish peroxidase (HRP)-conjugated anti-phosphotyrosine antibody (UBI). The HRP substrate solution containing 3,3′-5,5′-tetramethylbenzidine and hydrogen peroxide was later added and the plates were incubated for 10 minutes at room temperature. The reaction was quenched with acid and the resulting absorbance was read at 450 nm using a Microplate Bio-kinetics Reader (Bio-Tek Instrument EL 312e). Inhibition data were analyzed using the sigmoidal dose-response (variable slope) equation in GraphPad Prism.

[4] = 300 nM compound, 40 μM ATP, value printed in parentheses
[5] = 1 μM compound, 20 μM ATP, value printed in parentheses

- inhibition at 0.3 µM [1, 4]: 15%
- IC50 [2]: 138 nM
SMILES: O=C1NCc2c3c(c4c(c21)c1ccccc1n4CCO)-c1ccccc1CC3 [Compound X-4]

- melting point: > 300 °C
- inhibition at 0.3 µM [1, 4]: 0%
- IC50 [2]: 71 nM
- inhibition at 1 µM [3, 5]: 6%
SMILES: O=C1NC(=O)c2c1c1c(c3[nH]c4ccccc4c23)-c2ccccc2C1 [IV-1]

- inhibition at 0.3 µM [1, 4]: 2%
- IC50 [2]: 870 nM
- inhibition at 1 µM [3, 5]: 17%
SMILES: O=c1[nH]c(=O)c2c1c1c(=O)c3ccccc3c1c1[nH]c3ccccc3c12 [IV-2]

- melting point: > 262 °C
- inhibition at 0.3 µM [1, 4]: 18%
- IC50 [2]: 332 nM
- inhibition at 1 µM [3, 5]: 0%
SMILES: Cn1c2ccccc2c2c3c(c4c(c21)-c1ccccc1C4)C(=O)NC3=O [IV-3]

SMILES: O=C1NC(=O)c2c1c1c(c3[nH]c4ccccc4c23)-c2ccccc2CC1 [IV-5]
- trkA (% inhibition @ 300 nM) [1, 4]: (14) %
- IC50 [2]: 160 nM
- PDGFRβ (% inhibition @ 1 μM) [3, 5]: (26) %

SMILES: COc1ccc2[nH]c3c4c(c5c(c3c2c1)C(=O)NC5=O)CCc1ccccc1-4 [IV-6]
- inhibition at 0.3 µM ([2]; read-out: VEGFR kinase (% inhibition @ 300 nM)): 14%

- melting point: > 300 °C
- inhibition at 0.3 µM [1, 4]: 6%
- IC50 [2]: 2860 nM
- inhibition at 1 µM [3, 5]: 20%
SMILES: O=C1NC(=O)c2c1c1c(c3[nH]c4ccc(Br)cc4c23)-c2ccccc2CC1 [IV-9]

- inhibition at 0.3 µM [1, 4]: 6%
- IC50 [2]: 5330 nM
- inhibition at 1 µM [3, 5]: 11%
SMILES: O=C1NC(=O)c2c1c1sc3ccccc3c1c1[nH]c3ccccc3c21 [IV-10]

- inhibition at 0.3 µM [1, 4]: 4%
- IC50 [2]: 555 nM
- inhibition at 1 µM [3, 5]: 6%
SMILES: O=C1NC(=O)c2c1c1c(c3[nH]c4ccccc4c23)-c2ccccc2OC1 [IV-11]

SMILES: COCC1c2ccccc2-c2c1c1c(c3c2[nH]c2ccccc23)C(=O)NC1=O (centres unmarked) [IV-12]
- VEGFR kinase (% inhibition @ 300 nM) [2]: (19) %

SMILES: O=C1NC(=O)c2c1c1c(c3[nH]c4ccccc4c23)-c2ccccc2C1C(O)c1cccnc1 (centres unmarked) [IV-13]
- VEGFR kinase (% inhibition @ 300 nM) [2]: (8) %

SMILES: O=C1NC(=O)c2c1c1c(c3[nH]c4ccccc4c23)-c2ccccc2C1CO (centres unmarked) [IV-15]
- VEGFR kinase (% inhibition @ 300 nM) [2]: (7) %

SMILES: O=C1NC(=O)c2c1c1c(c3[nH]c4ccccc4c23)-c2ccccc2C1c1cccs1 (centres unmarked) [IV-16]
- VEGFR kinase (% inhibition @ 300 nM) [2]: (14) %

SMILES: COCCOCC1c2ccccc2-c2c1c1c(c3c2[nH]c2ccccc23)C(=O)NC1=O (centres unmarked) [IV-17]
- VEGFR kinase (% inhibition @ 300 nM) [2]: (3) %

SMILES: O=C1NC(=O)c2c1c1c(c3[nH]c4ccccc4c23)-c2ccccc2C1C(O)c1ccncc1 (centres unmarked) [IV-18]
- VEGFR kinase (% inhibition @ 300 nM) [2]: (8) %

SMILES: N#CCCn1c2ccccc2c2c3c(c4c(c21)-c1ccccc1CC4)C(=O)NC3=O [IV-19]
- VEGFR kinase (% inhibition @ 300 nM) [2]: (4) %

SMILES: N#CCCCn1c2ccccc2c2c3c(c4c(c21)-c1ccccc1CC4)C(=O)NC3=O [IV-20]
- VEGFR kinase (% inhibition @ 300 nM) [2]: (11) %

SMILES: CCOC(=O)CCn1c2ccccc2c2c3c(c4c(c21)-c1ccccc1CC4)C(=O)NC3=O [IV-21]
- VEGFR kinase (% inhibition @ 300 nM) [2]: (7) %

SMILES: O=C(O)CCn1c2ccccc2c2c3c(c4c(c21)-c1ccccc1CC4)C(=O)NC3=O [IV-22]
- VEGFR kinase (% inhibition @ 300 nM) [2]: (8) %

SMILES: NCCCn1c2ccccc2c2c3c(c4c(c21)-c1ccccc1CC4)C(=O)NC3=O [IV-23]
- VEGFR kinase (% inhibition @ 300 nM) [2]: (0) %

SMILES: CS(=O)(=O)NCCCn1c2ccccc2c2c3c(c4c(c21)-c1ccccc1CC4)C(=O)NC3=O [IV-24]
- VEGFR kinase (% inhibition @ 300 nM) [2]: (0) %

SMILES: CC(=O)NCCCn1c2ccccc2c2c3c(c4c(c21)-c1ccccc1CC4)C(=O)NC3=O [IV-25]
- VEGFR kinase (% inhibition @ 300 nM) [2]: (0) %

SMILES: CNC(=S)NCCCn1c2ccccc2c2c3c(c4c(c21)-c1ccccc1CC4)C(=O)NC3=O [IV-26]
- VEGFR kinase (% inhibition @ 300 nM) [2]: (10) %

SMILES: O=C(NCCCn1c2ccccc2c2c3c(c4c(c21)-c1ccccc1CC4)C(=O)NC3=O)Nc1ccccc1 [IV-27]
- VEGFR kinase (% inhibition @ 300 nM) [2]: (5) %

SMILES: CC(C)(C)OC(=O)N1CCCC1C(=O)NCCCn1c2ccccc2c2c3c(c4c(c21)-c1ccccc1CC4)C(=O)NC3=O (centres unmarked) [IV-29]
- VEGFR kinase (% inhibition @ 300 nM) [2]: (1) %

SMILES: O=C1NC(=O)c2c1c1c(c3c2c2ccccc2n3CCCNC(=O)C2CCCN2)-c2ccccc2CC1 (centres unmarked) [IV-30]
- VEGFR kinase (% inhibition @ 300 nM) [2]: (1) %

SMILES: CS(=O)(=O)N1CCCC1C(=O)NCCCn1c2ccccc2c2c3c(c4c(c21)-c1ccccc1CC4)C(=O)NC3=O (centres unmarked) [IV-31]
- VEGFR kinase (% inhibition @ 300 nM) [2]: (10) %

SMILES: CS(=O)(=O)NCc1ccc2[nH]c3c4c(c5c(c3c2c1)C(=O)NC5=O)CCc1ccccc1-4 [IV-34]
- VEGFR kinase (% inhibition @ 300 nM) [2]: (54) %

SMILES: CNC(=S)NCc1ccc2[nH]c3c4c(c5c(c3c2c1)C(=O)NC5=O)CCc1ccccc1-4 [IV-35]
- VEGFR kinase (% inhibition @ 300 nM) [2]: 43%
- IC50 [2]: 316 nM

SMILES: CC(C)(C)OC(=O)C=Cc1ccc2[nH]c3c4c(c5c(c3c2c1)C(=O)NC5=O)CCc1ccccc1-4 [IV-36]
- VEGFR kinase (% inhibition @ 300 nM) [2]: (17) %

SMILES: O=C(O)C=Cc1ccc2[nH]c3c4c(c5c(c3c2c1)C(=O)NC5=O)CCc1ccccc1-4 [IV-37]
- VEGFR kinase (% inhibition @ 300 nM) [2]: (11) %

SMILES: CC(C)(C)OC(=O)CCc1ccc2[nH]c3c4c(c5c(c3c2c1)C(=O)NC5=O)CCc1ccccc1-4 [IV-38]
- VEGFR kinase (% inhibition @ 300 nM) [2]: (5) %

SMILES: O=C1NC(=O)c2c1c1c(c3[nH]c4ccc(C=Cc5ccccn5)cc4c23)-c2ccccc2CC1 [IV-39]
- VEGFR kinase (% inhibition @ 300 nM) [2]: (8) %

SMILES: O=C(O)CCc1ccc2[nH]c3c4c(c5c(c3c2c1)C(=O)NC5=O)CCc1ccccc1-4 [IV-40]
- VEGFR kinase (% inhibition @ 300 nM) [2]: (10) %

SMILES: O=C1NC(=O)c2c1c1c(c3c2c2ccccc2n3CCCOCc2ccccc2)-c2ccccc2CC1 [IV-41]
- VEGFR kinase (% inhibition @ 300 nM) [2]: (34) %

SMILES: O=C1NC(=O)c2c1c1c(c3c2c2ccccc2n3CCCO)-c2ccccc2CC1 [IV-42]
- VEGFR kinase (% inhibition @ 300 nM) [2]: (42) %

SMILES: N#CC=Cc1ccc2[nH]c3c4c(c5c(c3c2c1)C(=O)NC5=O)CCc1ccccc1-4 [IV-43]
- VEGFR kinase (% inhibition @ 300 nM) [2]: (8) %

SMILES: N#Cc1ccc2c(c1)c1c3c(c4c(c1n2CCCOCc1ccccc1)-c1ccccc1CC4)C(=O)NC3=O [IV-44]
- VEGFR kinase (% inhibition @ 300 nM) [2]: (3) %

SMILES: O=C1NCc2c1c1c(c3[nH]c4ccccc4c23)-c2ccccc2C1 [IX-1]
- trkA (% inhibition @ 300 nM) [1, 4]: (9) %
- VEGFR kinase (% inhibition @ 300 nM) [2]: (10) %
- PDGFRβ (% inhibition @ 1 μM) [3, 5]: (23) %

SMILES: O=C1NCc2c1c1c(c3[nH]c4ccccc4c23)-c2ccccc2CC1 [IX-2]
- trkA (% inhibition @ 300 nM) [1, 4]: (9) %
- IC50 [2]: 8750 nM
- PDGFRβ (% inhibition @ 1 μM) [3, 5]: (8) %

- IC50 [2]: 8390 nM
- inhibition at 1 µM [3, 5]: 10%
SMILES: O=C1NC(=O)c2c1c1c(c3[nH]c4ncccc4c23)-c2ccccc2CC1 [XIII]

SMILES: O=C1NC(=O)c2c1c1ccc3sccc3c1c1[nH]c3ccccc3c21 [XVII]
- inhibition at 0.3 µM [1]: 10%
- IC50 [2]: 796 nM
- inhibition at 1 µM [3]: 24%
